Data taken from patent publication US11045455B2, “Azetidine derivative, preparation method therefor, and use thereof” (SICHUAN KELUN-BIOTECH BIOPHARMACEUTICAL CO., LTD., priority 2016, dated 2021).
Read-outs that look alike come from different tables or passages of the source.

Assays:
JAK2 = JAK2 (Homo sapiens (Human), UniProt O60674); test: JAK2 enzymatic inhibition assay (ADP-Glo luminescence); type: biochemical
Method: (§5) Test Materials • JAK1, JAK2, JAK3 and TYK2 enzymes were purchased from Life Technologies; and substrate GFP-STAT1 was purchased from Life Technologies.
(§6) Test compounds, enzymes, the substrate and ATP were diluted to the desired concentrations with the assay buffer (40 mM Tris-HCl, pH 7.4, 20 mM MgCl2, 0.1% BSA). The former three were added into a multiple well plate, and incubated at room temperature after being mixed homogeneously. ATP was added to initiate the kinase reaction, and incubation at room temperature was performed. ADP-Glo was added, and incubation at room temperature was performed. The kinase detector reagent was then added, and incubation at room temperature was performed. The luminescence intensity of each test group was detected, and the half maximal inhibitory concentration (IC50) value was calculated.

CYP1A2 = CYP1A2 (Homo sapiens (Human), UniProt P05177); test: CYP450 enzyme test, P450-Glo screening system, CYP1A2; type: in vitro ADME
From the text: (§1) CYP450 is the most important enzymatic system in drug metabolism. The enzymes involved in the metabolism interact with a drug, and mainly include CYP1A2, CYP2D6 and CYP3A4. In the CYP450 enzyme test, P450-Glo™ CYP1A2 screening system was employed to determine the inhibitory activity of compounds on CYP1A2 and CYP3A4. The Vivid® CYP2D6 Cyan screening kit was employed to determine the inhibitory activity of test compounds on CYP2D6.

CYP2D6 = CYP2D6 (Homo sapiens (Human), UniProt P10635); test: CYP450 enzyme test, Vivid CYP2D6 Cyan screening kit; type: in vitro ADME
From the text: as §1

CYP3A4 = CYP3A4 (Homo sapiens (Human), UniProt P08684); test: CYP450 enzyme test, P450-Glo screening system, CYP3A4; type: in vitro ADME
From the text: as §1

hERG potassium channel = hERG potassium channel (Homo sapiens (Human), UniProt Q12809); test: Predictor hERG Fluorescence Polarization Assay; type: binding; settings: tested at 3, 10 and 30 μM
Method: Experimental Example 2: Safety Test
The effect of test compounds on hERG potassium channel were determined using Predictor™ hERG Fluorescence Polarization Assay at concentrations of 3, 10, and 30 μM.

TYK2 = TYK2 (Homo sapiens (Human), UniProt P29597); test: TYK2 enzymatic inhibition assay (LanthaScreen TR-FRET); type: biochemical
Method: (§2) Experimental Example 1: JAK1, JAK2, JAK3 and TYK2 Enzymatic Inhibition Assay
As for the TYK2 enzyme, Tb-anti-pSTAT1 was added, and incubation at room temperature was performed.

JAK1 = JAK1 (Homo sapiens (Human), UniProt P23458); test: JAK1 enzymatic inhibition assay (ADP-Glo luminescence); type: biochemical
Method: as §5, §6

[1] = Pharmacokinetic study in rats, intravenous (IV) administration; type: in vivo; settings: male, SD, rat, plasma, IV administration at 1 mg/kg; for AUC(0-t): 0-24 h; for half-life: read-out: T½ (converted)
Method: (§3) Experimental Example 3: Pharmacokinetic Studies
(§4) To study the pharmacokinetic characteristics of test compounds, the test compounds were administrated by intravenous (IV) and gavage (PO) routes to male SD rats. The dosage for IV administration was 1 mg/kg, and that for PO administration was 0.5-5 mg/kg. The vehicle is 10% DMSO: 10% solutol: 80% physiological saline, or 5% DMSO: 5% solutol: 90% physiological saline, or 10% DMSO: 60% PEG: 30% physiological saline. Blood was collected at various time points after administration. Plasma samples were analyzed by LC-MS/MS after protein precipitation process with acetonitrile.

[2] = Pharmacokinetic study in rats, gavage (PO) administration; type: in vivo; settings: male, SD, rat, plasma, po, gavage administration at 5 mg/kg, 0-24 h
Method: as §3, §4

JAK3 = JAK3 (Homo sapiens (Human), UniProt P52333); test: JAK3 enzymatic inhibition assay (ADP-Glo luminescence); type: biochemical
From the text: as §2

Sequence of JAK1 (P23458 whole entry): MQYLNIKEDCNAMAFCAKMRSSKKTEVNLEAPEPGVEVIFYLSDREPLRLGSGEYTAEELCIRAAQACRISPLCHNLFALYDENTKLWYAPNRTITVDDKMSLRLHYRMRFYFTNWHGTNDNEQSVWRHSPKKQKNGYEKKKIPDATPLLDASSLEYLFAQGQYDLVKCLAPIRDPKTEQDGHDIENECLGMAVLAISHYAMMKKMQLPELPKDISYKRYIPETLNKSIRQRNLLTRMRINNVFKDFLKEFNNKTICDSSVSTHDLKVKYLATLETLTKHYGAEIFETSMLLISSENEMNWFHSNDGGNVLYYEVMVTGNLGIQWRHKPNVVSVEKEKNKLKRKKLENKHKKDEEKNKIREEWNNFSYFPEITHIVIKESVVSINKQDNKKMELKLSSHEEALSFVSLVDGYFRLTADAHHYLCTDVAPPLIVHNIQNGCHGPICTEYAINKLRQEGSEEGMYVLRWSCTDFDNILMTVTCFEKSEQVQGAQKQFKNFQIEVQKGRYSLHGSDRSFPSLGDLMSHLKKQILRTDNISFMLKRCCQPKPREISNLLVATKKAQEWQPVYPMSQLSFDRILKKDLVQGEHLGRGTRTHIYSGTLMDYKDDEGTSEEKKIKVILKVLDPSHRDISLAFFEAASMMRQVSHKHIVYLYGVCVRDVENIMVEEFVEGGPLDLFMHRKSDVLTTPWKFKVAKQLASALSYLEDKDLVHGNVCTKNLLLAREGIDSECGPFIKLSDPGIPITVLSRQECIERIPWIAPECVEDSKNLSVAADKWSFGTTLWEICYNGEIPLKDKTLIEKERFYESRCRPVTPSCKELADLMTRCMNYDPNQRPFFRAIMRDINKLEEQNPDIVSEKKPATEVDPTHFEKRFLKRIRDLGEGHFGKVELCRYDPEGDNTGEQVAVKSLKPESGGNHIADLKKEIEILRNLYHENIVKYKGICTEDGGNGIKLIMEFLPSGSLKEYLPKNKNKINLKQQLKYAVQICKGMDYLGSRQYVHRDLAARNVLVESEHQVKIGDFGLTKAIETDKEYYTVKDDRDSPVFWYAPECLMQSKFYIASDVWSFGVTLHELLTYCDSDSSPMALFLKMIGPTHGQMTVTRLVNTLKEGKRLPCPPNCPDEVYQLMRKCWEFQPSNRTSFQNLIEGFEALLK
Sequence of JAK2 (O60674 whole entry): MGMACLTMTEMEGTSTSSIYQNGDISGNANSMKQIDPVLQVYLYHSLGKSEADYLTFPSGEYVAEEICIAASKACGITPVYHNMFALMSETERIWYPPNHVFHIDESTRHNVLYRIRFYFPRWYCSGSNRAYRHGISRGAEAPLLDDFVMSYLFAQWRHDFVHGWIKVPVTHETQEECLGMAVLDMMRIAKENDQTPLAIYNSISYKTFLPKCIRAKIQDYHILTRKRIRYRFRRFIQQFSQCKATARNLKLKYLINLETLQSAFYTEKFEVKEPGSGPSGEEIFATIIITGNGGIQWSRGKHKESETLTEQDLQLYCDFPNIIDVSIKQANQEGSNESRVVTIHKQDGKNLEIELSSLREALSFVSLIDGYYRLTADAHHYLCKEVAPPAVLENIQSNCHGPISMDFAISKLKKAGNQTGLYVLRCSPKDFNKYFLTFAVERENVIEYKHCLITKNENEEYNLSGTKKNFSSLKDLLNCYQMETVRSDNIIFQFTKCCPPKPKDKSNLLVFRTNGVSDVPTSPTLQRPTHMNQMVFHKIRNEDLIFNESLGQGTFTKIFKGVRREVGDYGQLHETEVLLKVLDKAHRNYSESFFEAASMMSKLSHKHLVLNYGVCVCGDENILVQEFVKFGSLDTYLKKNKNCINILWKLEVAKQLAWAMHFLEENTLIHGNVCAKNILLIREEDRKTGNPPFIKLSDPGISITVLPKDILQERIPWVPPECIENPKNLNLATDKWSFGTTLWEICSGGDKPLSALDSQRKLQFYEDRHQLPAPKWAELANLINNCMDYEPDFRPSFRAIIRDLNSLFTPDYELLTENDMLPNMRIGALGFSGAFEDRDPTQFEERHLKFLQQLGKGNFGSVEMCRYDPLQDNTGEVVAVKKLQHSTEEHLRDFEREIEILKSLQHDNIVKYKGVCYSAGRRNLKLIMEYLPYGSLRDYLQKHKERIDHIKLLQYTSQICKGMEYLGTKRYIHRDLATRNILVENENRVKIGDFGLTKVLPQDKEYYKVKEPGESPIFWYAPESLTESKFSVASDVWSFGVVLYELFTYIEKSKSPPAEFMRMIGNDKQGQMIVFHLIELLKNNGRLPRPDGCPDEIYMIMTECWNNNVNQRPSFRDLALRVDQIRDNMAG
Sequence of JAK3 (P52333 whole entry): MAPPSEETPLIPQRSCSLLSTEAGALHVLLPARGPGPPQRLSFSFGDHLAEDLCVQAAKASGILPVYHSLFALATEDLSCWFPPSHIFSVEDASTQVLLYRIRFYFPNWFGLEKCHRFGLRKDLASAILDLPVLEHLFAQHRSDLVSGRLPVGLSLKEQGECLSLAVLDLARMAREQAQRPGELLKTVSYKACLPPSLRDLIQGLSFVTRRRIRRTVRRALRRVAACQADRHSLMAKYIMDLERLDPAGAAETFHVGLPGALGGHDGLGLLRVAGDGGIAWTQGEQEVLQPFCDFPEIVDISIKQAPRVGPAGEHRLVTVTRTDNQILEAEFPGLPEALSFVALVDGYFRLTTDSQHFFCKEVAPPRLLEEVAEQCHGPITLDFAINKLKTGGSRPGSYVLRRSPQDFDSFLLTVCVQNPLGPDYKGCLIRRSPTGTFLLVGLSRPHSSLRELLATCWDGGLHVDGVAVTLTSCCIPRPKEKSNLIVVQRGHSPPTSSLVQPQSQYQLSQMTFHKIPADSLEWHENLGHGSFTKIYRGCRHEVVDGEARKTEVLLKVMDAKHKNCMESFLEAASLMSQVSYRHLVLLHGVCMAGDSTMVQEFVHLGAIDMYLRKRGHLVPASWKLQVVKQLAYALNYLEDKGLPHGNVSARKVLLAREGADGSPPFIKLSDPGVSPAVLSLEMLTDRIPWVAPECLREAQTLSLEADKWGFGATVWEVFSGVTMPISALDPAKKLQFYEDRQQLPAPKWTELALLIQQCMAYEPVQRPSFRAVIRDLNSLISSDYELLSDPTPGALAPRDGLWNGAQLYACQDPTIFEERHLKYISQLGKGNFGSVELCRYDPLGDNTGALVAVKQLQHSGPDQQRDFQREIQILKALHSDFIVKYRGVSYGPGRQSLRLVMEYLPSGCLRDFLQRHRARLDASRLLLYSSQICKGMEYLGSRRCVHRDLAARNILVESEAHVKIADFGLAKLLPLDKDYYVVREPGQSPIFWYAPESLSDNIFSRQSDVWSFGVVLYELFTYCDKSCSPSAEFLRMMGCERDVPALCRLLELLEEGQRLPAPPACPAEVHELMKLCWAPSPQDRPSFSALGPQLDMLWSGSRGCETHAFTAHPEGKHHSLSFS
Sequence of TYK2 (P29597 whole entry): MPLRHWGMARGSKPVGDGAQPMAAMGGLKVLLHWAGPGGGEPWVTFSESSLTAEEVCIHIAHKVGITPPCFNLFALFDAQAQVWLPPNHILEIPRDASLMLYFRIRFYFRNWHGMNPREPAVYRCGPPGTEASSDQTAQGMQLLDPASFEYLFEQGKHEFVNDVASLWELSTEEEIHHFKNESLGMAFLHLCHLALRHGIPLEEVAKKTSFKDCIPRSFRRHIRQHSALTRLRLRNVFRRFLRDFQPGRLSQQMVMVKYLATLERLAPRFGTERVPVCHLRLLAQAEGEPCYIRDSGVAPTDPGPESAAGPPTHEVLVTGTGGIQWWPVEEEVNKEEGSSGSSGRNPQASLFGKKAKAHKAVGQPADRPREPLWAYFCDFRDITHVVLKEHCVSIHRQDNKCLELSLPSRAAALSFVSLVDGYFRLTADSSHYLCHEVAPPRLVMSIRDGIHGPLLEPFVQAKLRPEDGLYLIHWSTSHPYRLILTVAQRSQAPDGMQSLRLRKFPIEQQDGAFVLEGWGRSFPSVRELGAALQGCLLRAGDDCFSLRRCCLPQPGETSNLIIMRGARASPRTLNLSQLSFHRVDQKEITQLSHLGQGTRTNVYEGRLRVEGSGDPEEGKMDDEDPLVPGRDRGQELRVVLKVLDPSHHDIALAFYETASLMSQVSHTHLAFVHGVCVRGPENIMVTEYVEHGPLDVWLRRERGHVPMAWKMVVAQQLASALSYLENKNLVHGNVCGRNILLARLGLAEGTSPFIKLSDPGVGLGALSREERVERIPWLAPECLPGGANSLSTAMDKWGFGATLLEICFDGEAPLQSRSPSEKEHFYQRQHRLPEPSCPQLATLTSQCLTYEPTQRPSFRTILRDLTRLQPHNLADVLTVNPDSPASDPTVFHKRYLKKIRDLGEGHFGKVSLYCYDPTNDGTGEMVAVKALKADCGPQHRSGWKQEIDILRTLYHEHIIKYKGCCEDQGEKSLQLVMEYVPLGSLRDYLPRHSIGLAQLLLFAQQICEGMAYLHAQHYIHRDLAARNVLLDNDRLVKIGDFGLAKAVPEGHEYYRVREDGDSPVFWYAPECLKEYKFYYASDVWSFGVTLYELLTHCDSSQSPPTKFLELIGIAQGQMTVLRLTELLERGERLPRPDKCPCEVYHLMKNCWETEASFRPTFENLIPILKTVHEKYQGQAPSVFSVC
Sequence of CYP3A4 (P08684 whole entry): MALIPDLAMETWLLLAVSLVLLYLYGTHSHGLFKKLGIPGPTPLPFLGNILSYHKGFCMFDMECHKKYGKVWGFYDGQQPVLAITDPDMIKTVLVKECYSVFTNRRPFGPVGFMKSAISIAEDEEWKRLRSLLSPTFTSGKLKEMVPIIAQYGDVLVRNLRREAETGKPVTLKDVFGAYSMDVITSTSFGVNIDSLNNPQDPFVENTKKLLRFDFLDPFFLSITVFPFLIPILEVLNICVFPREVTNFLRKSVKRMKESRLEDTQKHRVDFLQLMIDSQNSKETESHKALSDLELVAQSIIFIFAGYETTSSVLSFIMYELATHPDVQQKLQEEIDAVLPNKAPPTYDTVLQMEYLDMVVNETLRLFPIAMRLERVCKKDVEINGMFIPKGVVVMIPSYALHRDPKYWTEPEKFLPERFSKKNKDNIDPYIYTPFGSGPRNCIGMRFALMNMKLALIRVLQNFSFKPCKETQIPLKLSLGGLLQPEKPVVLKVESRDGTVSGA

SMILES	IC50 (JAK2) [nM]	IC50 (CYP1A2; read-out: IC50 (μM) CYP1A2) [µM]	IC50 (CYP2D6) [µM]	IC50 (CYP3A4) [µM]	IC50 (TYK2) [nM]	IC50 (JAK1) [nM]	AUC(0-t) [1] [ng·h/mL]	half-life [1] [h]	AUC(0-t) [2] [ng·h/mL]	IC50 (JAK3) [nM]	IC50 (CYP1A2; human) [µM]	IC50 (hERG potassium channel) [nM]
N#CCC1(n2cc(-c3ccnc4[nH]ccc34)cn2)CN(S(=O)(=O)CCC(F)(F)F)C1 [Compound 30, 2-(3-(4-(1H-pyrrolo[2,3-b]pyridin-4-yl)-1H-pyrazol-1-yl)-1-((3,3,3-trifluoropropyl)sulfonyl)azetidin-3-yl)acetonitrile]	2.16	–	–	–	58.2	2.22	3170	1.5	32200	36.5	–	> 30000
CS(=O)(=O)N1CC(CC#N)(n2cc(-c3ccnc4[nH]ccc34)cn2)C1 [Compound 19, 2-(3-(4-(1H-pyrrolo[2,3-b]pyridin-4-yl)-1H-pyrazol-1-yl)-1-(methylsulfonyl)azetidin-3-yl)acetonitrile]	–	–	> 10	> 10	–	0.69	1390	7.1	5030	10.3	> 10	> 30000
CCS(=O)(=O)N1CC(CC#N)(n2cc(-c3ncnc4[nH]ccc34)cc2C#N)C1 [Compound 39, 1-(3-(cyanomethyl)-1-(ethylsulfonyl)azetidin-3-yl)-4-(7H-pyrrolo[2,3-d]pyrimidin-4-yl)-1H-pyrrole-2-carbonitrile]	0.69	–	> 10	> 10	–	–	–	1.67	–	10 to 30	> 10	> 30000
N#CCC1(n2cc(-c3ccnc4[nH]ccc34)cn2)CN(S(=O)(=O)N2CCCC2)C1 [Compound 35, 2-(3-(4-(1H-pyrrolo[2,3-b]pyridin-4-yl)-1H-pyrazol-1-yl)-1-(pyrrolidin-1-ylsulfonyl)azetidin-3-yl)acetonitrile]	1.4	–	–	–	> 30	1.46	–	–	–	> 30	–	> 30000
CCS(=O)(=O)N1CC(CC#N)(n2cc(-c3ccnc4[nH]ccc34)c(Cl)n2)C1 [Compound 48, 2-(3-(3-chloro-4-(1H-pyrrolo[2,3-b]pyridin-4-yl)-1H-pyrazol-1-yl)-1-(ethylsulfonyl)azetidin-3-yl)acetonitrile]	1.4	> 10	> 10	> 10	–	5.66	–	–	–	–	–	> 30000
CC1(S(=O)(=O)N2CC(CC#N)(n3cc(-c4ccnc5[nH]ccc45)cn3)C2)CC1 [Compound 31, 2-(3-(4-(1H-pyrrolo[2,3-b]pyridin-4-yl)-1H-pyrazol-1-yl)-1-((1-methylcyclopropyl)sulfonyl)azetidin-3-yl)acetonitrile]	1.23	–	–	–	–	0.72	540	–	–	23.6	–	> 30000
CCS(=O)(=O)N1CC([C@H](C)C#N)(n2cc(-c3ncnc4[nH]ccc34)cn2)C1 [Compound 12-2, (S)-2-(3-(4-(7H-pyrrolo[2,3-d]pyrimidin-4-yl)-1H-pyrazol-1-yl)-1-(ethylsulfonyl)azetidin-3-yl)propanenitrile]	1.81	–	–	–	~30	–	–	–	–	10 to 30	–	> 30000
CCS(=O)(=O)N1CC(CC#N)(n2cc(-c3c(C#N)cnc4[nH]ccc34)cn2)C1 [Compound 5, 4-(1-(3-(cyanomethyl)-1-(ethylsulfonyl)azetidin-3-yl)-1H-pyrazol-4-yl)-1H-pyrrolo[2,3-b]pyridine-5-carbonitrile]	1.49	–	> 10	> 10	27	–	834	0.997	3150	33.8	> 10	> 30000
CCS(=O)(=O)N1CC([C@H](C)C#N)(n2cc(-c3c(C#N)cnc4[nH]ccc34)cn2)C1 [Compound 45-2, (S)-4-(1-(3-(1-cyanoethyl)-1-(ethylsulfonyl)azetidin-3-yl)-1H-pyrazol-4-yl)-1H-pyrrolo[2,3-b]pyridine-5-carbonitrile]	1.11	–	–	–	~30	1.85	–	–	–	10 to 30	–	> 30000
CC(C)CS(=O)(=O)N1CC(CC#N)(n2cc(-c3ccnc4[nH]ccc34)cn2)C1 [Compound 25, 2-(3-(4-(1H-pyrrolo[2,3-b]pyridin-4-yl)-1H-pyrazol-1-yl)-1-(isobutylsulfonyl)azetidin-3-yl)acetonitrile]	0.83	> 10	> 10	> 10	> 30	2.29	–	–	–	> 30	–	> 30000

The remaining compounds from weak to strong by IC50 (JAK2), led by results:

IC50 (JAK2) [nM]	IC50 (CYP1A2; read-out: IC50 (μM) CYP1A2) [µM]	IC50 (CYP2D6) [µM]	IC50 (CYP3A4) [µM]	IC50 (TYK2) [nM]	IC50 (JAK1) [nM]	AUC(0-t) [1] [ng·h/mL]	half-life [1] [h]	AUC(0-t) [2] [ng·h/mL]	IC50 (JAK3) [nM]	IC50 (CYP1A2; human) [µM]	SMILES	IC50 (hERG potassium channel) [nM]
2.54	> 10	> 10	> 10	> 30	0.55	–	–	–	10 to 30	–	CC(C)S(=O)(=O)N1CC(CC#N)(n2cc(-c3c(C#N)cnc4[nH]ccc34)cn2)C1 [Compound 43, 4-(1-(3-(cyanomethyl)-1-(isopropylsulfonyl)azetidin-3-yl)-1H-pyrazol-4-yl)-1H-pyrrolo[2,3-b]pyridine-5-carbonitrile]	> 30000
1.44	–	–	–	~30	2.89	–	–	–	> 30	–	CCS(=O)(=O)N1CC(CC#N)(n2cc(-c3ccnc4[nH]ccc34)c(C)n2)C1 [Compound 13, 2-(1-(ethylsulfonyl)-3-(3-methyl-4-(1H-pyrrolo[2,3-b]pyridin-4-yl)-1H-pyrazol-1-yl)azetidin-3-yl)acetonitrile]	> 30000
1.21	> 10	> 10	> 10	–	–	–	–	–	–	–	CCS(=O)(=O)N1CC(CC#N)(n2cc(-c3ncnc4[nH]ccc34)c(C)n2)C1 [Compound 49, 2-(1-(ethylsulfonyl)-3-(3-methyl-4-(7H-pyrrolo[2,3-d]pyrimidin-4-yl)-1H-pyrazol-1-yl)azetidin-3-yl)acetonitrile]	> 30000
1.17	–	–	–	~30	1.65	–	–	–	10 to 30	–	CCS(=O)(=O)N1CC([C@@H](C)C#N)(n2cc(-c3c(C#N)cnc4[nH]ccc34)cn2)C1 [Compound 45-1, (R)-4-(1-(3-(1-cyanoethyl)-1-(ethylsulfonyl)azetidin-3-yl)-1H-pyrazol-4-yl)-1H-pyrrolo[2,3-b]pyridine-5-carbonitrile]	> 30000
0.67	> 10	> 10	> 10	–	–	–	–	–	–	–	CCS(=O)(=O)N1CC(CC#N)(n2cc(-c3c(Cl)cnc4[nH]ccc34)cn2)C1 [Compound 50, 2-(3-(4-(5-chloro-1H-pyrrolo[2,3-b]pyridin-4-yl)-1H-pyrazol-1-yl)-1-(ethylsulfonyl)azetidin-3-yl)acetonitrile]	> 30000
0.42	–	–	–	–	0.17	–	–	–	–	–	CS(=O)(=O)N1CC(CC#N)(n2cc(-c3c(C#N)cnc4[nH]ccc34)cn2)C1 [Compound 2, 4-(1-(3-(cyanomethyl)-1-(methylsulfonyl)azetidin-3-yl)-1H-pyrazol-4-yl)-1H-pyrrolo[2,3-b]pyridine-5-carbonitrile]	> 30000
0.4	> 10	> 10	> 10	–	–	–	–	–	–	–	CCS(=O)(=O)N1CC(CC#N)(n2cc(-c3c(F)cnc4[nH]ccc34)cn2)C1 [Compound 52, 2-(1-(ethylsulfonyl)-3-(4-(5-fluoro-1H-pyrrolo[2,3-b]pyridin-4-yl)-1H-pyrazol-1-yl)azetidin-3-yl)acetonitrile]	> 30000
